What follows are compounds tested against T1, human recombinant mGluR5 (Homo sapiens, UniProt P41594) (assay: positive modulation of mGluR5, calcium based FLIPR assay). Conditions: HEK 293 cell line expressing human recombinant mGluR5; EC50 of the modulation from peak Ca fluorescence signal after glutamate at approx. 5% basal stimulation.
T1 construct: expressed in transfected cells; host or cells: HEK 293
T1 sequence (P41594 21-1212): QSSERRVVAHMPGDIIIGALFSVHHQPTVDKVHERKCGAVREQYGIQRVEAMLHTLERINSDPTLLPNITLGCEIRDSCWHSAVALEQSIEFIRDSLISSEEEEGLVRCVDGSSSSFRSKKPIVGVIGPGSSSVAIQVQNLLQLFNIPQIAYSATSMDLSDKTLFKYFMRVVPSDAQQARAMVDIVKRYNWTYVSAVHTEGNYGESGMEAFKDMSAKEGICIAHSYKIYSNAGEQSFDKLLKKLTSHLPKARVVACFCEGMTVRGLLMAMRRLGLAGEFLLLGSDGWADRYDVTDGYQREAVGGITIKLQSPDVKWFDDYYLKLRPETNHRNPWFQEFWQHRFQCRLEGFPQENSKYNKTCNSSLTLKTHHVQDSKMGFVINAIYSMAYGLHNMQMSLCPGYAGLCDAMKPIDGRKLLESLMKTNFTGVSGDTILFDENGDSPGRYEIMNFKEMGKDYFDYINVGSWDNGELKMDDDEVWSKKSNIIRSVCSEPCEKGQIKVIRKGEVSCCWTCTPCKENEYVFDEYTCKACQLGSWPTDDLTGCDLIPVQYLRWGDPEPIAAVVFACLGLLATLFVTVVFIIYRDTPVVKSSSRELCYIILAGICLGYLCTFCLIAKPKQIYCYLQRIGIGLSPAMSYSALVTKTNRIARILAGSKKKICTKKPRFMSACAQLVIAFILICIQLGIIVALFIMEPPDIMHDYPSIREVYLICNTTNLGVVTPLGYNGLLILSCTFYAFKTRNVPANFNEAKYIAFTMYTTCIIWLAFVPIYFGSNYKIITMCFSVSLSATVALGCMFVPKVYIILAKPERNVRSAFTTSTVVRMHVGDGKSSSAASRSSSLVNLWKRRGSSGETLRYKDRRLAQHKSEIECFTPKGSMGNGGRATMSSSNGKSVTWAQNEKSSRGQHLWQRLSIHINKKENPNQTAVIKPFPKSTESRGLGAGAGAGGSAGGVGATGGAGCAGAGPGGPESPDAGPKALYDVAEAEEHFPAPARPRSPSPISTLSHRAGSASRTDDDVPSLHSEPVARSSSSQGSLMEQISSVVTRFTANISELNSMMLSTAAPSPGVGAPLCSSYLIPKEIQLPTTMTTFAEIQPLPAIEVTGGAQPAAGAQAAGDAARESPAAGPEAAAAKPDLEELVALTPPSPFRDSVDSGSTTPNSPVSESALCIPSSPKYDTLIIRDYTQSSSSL
Outline: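 HEK 293 cells expressing human recombinant mGluR5, Calcium-4 dye-loaded in Ringer solution pH 7.4. Compound (1% DMSO final) preincubated 5 min, then glutamate at ~5% of maximal effect added; peak Ca2+ fluorescence gives EC50 by nonlinear regression, normalized to DMSO (100%) and 10 μM CDPPB (200%) controls.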
Work on `COc1ccc(-c2cc(-c3ccccc3)n(CC(=O)N3CCN(c4noc(C)n4)CC3)n2)cc1C` [Example 7.02.232] yielded an EC50 of 104 nM.
With `COc1ccc(-c2cc(-c3ccccc3)n(CC(=O)N3Cc4nc(C)sc4C3)n2)cc1C` [Example 7.02.233] the EC50 was 280 nM.
For `Cc1nnc(N2CCN(C(=O)Cn3nc(-c4ccc(OC(F)F)cn4)cc3-c3ccccc3)CC2)o1` [Example 7.02.234], the EC50 was 200 nM.
`Cc1nc(N2CCN(C(=O)Cn3nc(-c4ccc(OC(F)F)cn4)cc3-c3ccccc3)CC2)no1` [Example 7.02.235] was tested, and the EC50 was 30 nM.
With `Cc1nc2c(s1)CCN(C(=O)Cn1nc(-c3ccc(OC(F)F)cn3)cc1-c1ccccc1)CC2` [Example 7.02.236] the EC50 was 69 nM.
In the case of `Cc1nc2c(s1)CN(C(=O)Cn1nc(-c3ccc(OC(F)F)cn3)cc1-c1ccccc1)C2` [Example 7.02.237], the EC50 is reported as 111 nM.
In the case of `CCc1cc(-c2ccc(C)c(F)c2)nn1CC(=O)N1CCc2nc(C)sc2CC1` [Example 7.02.238], the EC50 is reported as 146 nM.
Work on `CCc1cc(-c2ccc(C)c(F)c2)nn1CC(=O)N1Cc2nc(C)sc2C1` [Example 7.02.239] yielded an EC50 of 842 nM.
`COc1ccc(-c2cc(-c3ccccc3)n(CC(=O)N3CCc4nc(C)sc4CC3)n2)cc1C` [Example 7.02.240] was tested, and the EC50 was 85 nM.
For `COc1ccc(-c2cc(-c3ccccc3)n(CC(=O)N3CCc4nc(C)sc4CC3)n2)cc1C` [Example 7.02.241], the EC50 was 76 nM.
`Cc1cc(-c2cc(-c3ccccc3)n(CC(=O)N3CCN(C(=O)Oc4ccccc4)CC3)n2)ccc1F` [Example 7.02.242] was tested, and the EC50 was 45 nM.
`Cc1nc2c(o1)CN(C(=O)Cn1nc(-c3ccc(OC(F)F)cn3)cc1-c1ccccc1)C2` [Example 7.02.244] showed an EC50 of 48 nM.
`CCc1cc(-c2ccc(C)c(F)c2)nn1CC(=O)N1Cc2nc(C)oc2C1` [Example 7.02.245] was tested, and the EC50 was 236 nM.
For `COc1ccc(-c2cc(-c3ccccc3)n(CC(=O)N3Cc4nc(C)oc4C3)n2)cc1C` [Example 7.02.246], the EC50 was 62 nM.
`CCCc1cc(-c2ccc(F)c(C)n2)nn1CC(=O)N1CCc2nc(C)sc2CC1` [Example 7.02.247] gave an EC50 of 172 nM.
`CCCc1cc(-c2ccc(F)c(C)n2)nn1CC(=O)N1Cc2nc(C)sc2C1` [Example 7.02.248] showed an EC50 of 290 nM.
`CCCc1cc(-c2ccc(F)c(C)n2)nn1CC(=O)N1Cc2nc(C)oc2C1` [Example 7.02.249] gave an EC50 of 184 nM.
In the case of `Cc1nnc(N2CCN(C(=O)Cn3nc(-c4ccc(C)c(F)c4)cc3-c3ccccc3)CC2)o1` [Example 7.02.250], the EC50 is reported as 65 nM.
With `Cc1nc2c(s1)CCN(C(=O)Cn1nc(-c3ccc(C)c(F)c3)cc1-c1ccccc1)CC2` [Example 7.02.251] the EC50 was 34 nM.
Compound `Cc1nc2c(s1)CN(C(=O)Cn1nc(-c3ccc(C)c(F)c3)cc1-c1ccccc1)C2` [Example 7.02.252] has an EC50 of 69 nM.
In the case of `Cc1nc2c(o1)CN(C(=O)Cn1nc(-c3ccc(C)c(F)c3)cc1-c1ccccc1)C2` [Example 7.02.253], the EC50 is reported as 41 nM.
`CCc1nc2c(o1)CN(C(=O)Cn1nc(-c3ccc(F)c(C)c3)cc1-c1ccccc1)C2` [Example 7.02.255] showed an EC50 of 7 nM.
`CCc1nc2c(o1)CN(C(=O)Cn1nc(-c3ccc(F)c(C)c3)cc1CC)C2` [Example 7.02.256] gave an EC50 of 11 nM.
Compound `Cc1nc2c(o1)CN(C(=O)Cn1nc(-c3ccc(C(F)F)cc3)cc1-c1ccccc1)C2` [Example 7.02.257] has an EC50 of 16 nM.
Compound `Cc1nnc(N2CCN(C(=O)Cn3nc(-c4ccc(C(F)F)cc4)cc3-c3ccccc3)CC2)o1` [Example 7.02.258] has an EC50 of 31 nM.
Work on `Cc1nc2c(s1)CCN(C(=O)Cn1nc(-c3ccc(C(F)F)cc3)cc1-c1ccccc1)CC2` [Example 7.02.259] yielded an EC50 of 10 nM.
In the case of `Cc1nc2c(s1)CN(C(=O)Cn1nc(-c3ccc(C(F)F)cc3)cc1-c1ccccc1)C2` [Example 7.02.260], the EC50 is reported as 26 nM.

Reference: patent US8741892B2, “Compounds” (Boehringer Ingelheim International GmbH, priority 2011, dated 2014)
